Like-named read-outs stand apart in the source and are kept apart here.
Columns and labels:
parietal cells = test: Isolated Parietal Cell Assay (14C-aminopyrine accumulation, histamine or dibutyryl cAMP stimulated); assay type: cell-based, rabbit; conditions: Oryctolagus cuniculus
Protocol: The isolated parietal cell assay was conducted using the procedures of Batzri, S. et al., Biochemica et Biophysica Acta 508, 328 (1978) and Soll, A. H. Am. J. Physiol. 238, G366 (1980). Basically, parietal cells were isolated from the fundic mucosa of rabbit stomachs by a four-stage collagenase digestion process. The supernatant fractions from the last two stages of this process contain the individual parietal cells. This cell suspension was centrifuged and reconstituted in a modified Hank's buffer to contain 1-2×10^6 cells/ml. […] This accumulation was stimulated by histamine and was blocked by H2 antagonists. The cells were incubated with 0.4-0.5×10^6 cpm ^14 C-AP, with various concentrations of histamine as a stimulant, 1×10^-5 M isobutylmethylxanthine, and the test compound added in a 20 μl volume of buffer or DMSO. The flasks were incubated in a shaking water bath at 37° C. for 20 minutes. Two aliquots were then taken from each flask and cell pellets were collected by centrifugation. The pellets were solubilized with Protosol (New England Nuclear) and radioactivity determined by liquid scintillation spectrometry. Data is presented as the IC50 vhist, the concentration of compound required to inhibit ^14 C-AP accumulation in the histamine stimulated parietal cell by 50%.
When dibutyryl cAMP was used to stimulate the cells instead of histamine, a similar inhibition of ^14 C-AP accumulation was measured and the data are presented as the IC50 vcAMP, the concentration required to inhibit ^14 C-AP accumulation in the cAMP stimulated parietal cell by 50%.

[1] = biological target: T1, parietal cell H^+ K^+ ATPase (Oryctolagus cuniculus, UniProt P27112); test: Inhibition of Parietal Cell H^+ K^+ ATPase; assay type: biochemical, New Zealand white rabbits; conditions: read-out: % Inhibition at Concentration; for inhibition at 100 µM: at 10^-4 M
T1 construct: determined in fundic mucosa from New Zealand white rabbits which were homogenized; from tissue; host or cells: fundic mucosa of New Zealand white rabbits, homogenized; membrane protein
T1 sequence (P27112 2-1035 limits assumed): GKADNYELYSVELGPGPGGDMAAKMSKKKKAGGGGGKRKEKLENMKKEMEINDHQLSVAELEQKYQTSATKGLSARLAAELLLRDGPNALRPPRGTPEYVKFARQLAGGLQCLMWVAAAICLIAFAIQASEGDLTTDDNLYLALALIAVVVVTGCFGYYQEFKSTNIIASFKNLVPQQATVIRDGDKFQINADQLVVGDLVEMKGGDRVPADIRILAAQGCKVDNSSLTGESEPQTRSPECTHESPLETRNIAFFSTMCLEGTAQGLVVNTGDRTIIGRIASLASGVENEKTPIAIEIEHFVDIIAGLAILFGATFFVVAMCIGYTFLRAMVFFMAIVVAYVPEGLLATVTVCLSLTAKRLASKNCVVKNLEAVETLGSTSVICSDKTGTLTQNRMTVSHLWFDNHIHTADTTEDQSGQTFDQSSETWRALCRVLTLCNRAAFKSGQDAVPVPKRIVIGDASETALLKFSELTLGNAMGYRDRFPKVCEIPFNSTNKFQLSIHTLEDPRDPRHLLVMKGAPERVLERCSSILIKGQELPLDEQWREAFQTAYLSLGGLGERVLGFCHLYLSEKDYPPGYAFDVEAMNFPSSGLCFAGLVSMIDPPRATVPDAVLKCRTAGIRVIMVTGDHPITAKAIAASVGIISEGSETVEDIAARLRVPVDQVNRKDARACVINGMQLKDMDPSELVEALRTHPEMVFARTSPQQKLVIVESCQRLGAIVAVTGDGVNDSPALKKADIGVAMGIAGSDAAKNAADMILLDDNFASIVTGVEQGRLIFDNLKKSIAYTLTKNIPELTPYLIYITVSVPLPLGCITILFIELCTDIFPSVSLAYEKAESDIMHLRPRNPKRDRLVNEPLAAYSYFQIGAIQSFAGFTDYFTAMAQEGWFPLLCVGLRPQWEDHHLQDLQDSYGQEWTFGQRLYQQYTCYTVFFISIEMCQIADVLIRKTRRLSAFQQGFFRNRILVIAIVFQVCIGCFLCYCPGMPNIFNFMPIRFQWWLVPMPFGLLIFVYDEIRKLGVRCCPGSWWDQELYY
T1 sequence (P18597 whole entry partner): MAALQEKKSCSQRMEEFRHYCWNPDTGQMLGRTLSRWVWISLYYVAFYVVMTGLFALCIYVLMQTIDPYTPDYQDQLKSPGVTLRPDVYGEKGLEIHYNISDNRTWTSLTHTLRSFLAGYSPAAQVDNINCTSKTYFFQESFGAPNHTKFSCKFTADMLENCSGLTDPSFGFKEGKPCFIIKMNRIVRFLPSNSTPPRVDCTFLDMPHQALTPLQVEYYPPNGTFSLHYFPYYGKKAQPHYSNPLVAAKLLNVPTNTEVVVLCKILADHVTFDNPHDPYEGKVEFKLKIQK
Protocol: The activity was measured in a 1 ml incubation volume containing 50 mM Tris pH 7.4, 2 mM MgCl2, 2 mM Na2 ATP, with or without 20 mM KCl and vehicle control (dimethylsulfoxide) or test compound added in a 0.02 ml volume. Typically, 20-50 μg membrane protein was added and the tubes were preincubated with test compound for 10 minutes at 37° C. Substrate, Na2 ATP, was then added and the tubes were incubated for another 15 minutes at 37° C. The reaction was stopped by the addition of 1 ml 14% trichloroacetic acid and the samples were centrifuged at 2,000 ×g for 10 minutes. The amount of inorganic phosphate present in an aliquot of supernatant was determined. H^+ K^+ ATPase activity was determined after correcting for the basal (Mg^++ only) enzyme activity present in the membrane preparation.

[2] = system: acid output (gastric secretion); test: Gastric Secretion (pylorus ligation, modified Shay); assay type: in vivo, male Charles River Sprague Dawley derived rats; conditions: i.d. or s.c., 4 hours after ligation; for response vs control in vivo at 40 mg/kg: at 40 mpK
Protocol: The inhibitory activity of the compounds on acid output was tested using pylorus ligation in a modification of the procedure of Shay, H. et al., Gastroenterology 26, 906 (1954). Basically, male Charles River Sprague Dawley derived rats weighing 150-300 grams were deprived of food but not water for 18-24 hours prior to use. Water was withheld during the experiment, however. The rats were weighed, anesthetized with ether and the pylorus ligated according to the method of Shay et al., supra. Treatment or vehicle control was then administered intraduodenally (i.d.) or subcutaneously (s.c.). Rats were housed two/cage and sacrificed with CO2 four hours after ligation. The stomachs were removed, rinsed, and contents emptied into a graduated centrifuge tube. The tubes were centrifuged, the volume of gastric juice recorded, and any samples obviously contaminated by feces, food or blood were eliminated. A 1 ml aliquot of gastric juice was titrated with 0.1N NaOH to a pH of 7.0-7.4. The volume of gastric juice secreted, the acid concentration, and the product of the volume times the concentration, i.e., the total amount of acid secreted, were measured.

[3] = 20 min, histamine stimulated, 37° C., 20 minutes, read-out: IC50 vhist (inhibition of 14C-AP accumulation in the histamine stimulated parietal cell)
[4] = dibutyryl cAMP stimulated, read-out: IC50 vcAMP (inhibition of 14C-AP accumulation in the cAMP stimulated parietal cell)
[5] = Rattus norvegicus, read-out: % Acid Secreted at mpK

Row | SMILES | IC50 (parietal cells; [3]) [µM] | IC50 (parietal cells; [4]) [µM] | inhibition at 100 µM [1] [%] | % Acid Secreted at mpK ([2]; at 20 mpK) [%] | response vs control in vivo at 40 mg/kg [2, 5] [%] | also measured
1 | CCCCN(CCCC)CCCOc1ccc(-c2csc(C)n2)cc1 [Example 2, 4-(4-Dibutylaminopropoxyphenyl)-2-methylthiazole] | 1.5 | 8.4 | 22 | 8 | – | –
2 | CCCCN(CCCC)CCCOc1ccc(-c2nc(-c3ccccc3)sc2CC)cc1 [Example 25, 5-Ethyl-4-(4-dibutylaminopropoxyphenyl)-2-phenylthiazole] | 0.34 | 0.24 | 5 | 8 | – | –
3 | COc1ccccc1N1CCN(CCCOc2ccc(-c3csc(-c4ccccc4)n3)cc2)CC1 [Example 7, 4-[4-[4-(2-Methoxyphenyl)piperazol-1-yl]propoxyphenyl]-2-phenylthiazole] | 0.48 | 0.34 | 28 | – | – | –
4 | CCCCN(CCCC)CCCOc1ccc(-c2csc(-c3cc(OC)cc(OC)c3)n2)cc1 [Example 18, 4-(4-Dibutylaminopropoxyphenyl)-2-(3,5-dimethoxyphenyl)thiazole] | 0.26 | 0.54 | 30 | 17 | – | –
5 | CCCCN(CCCC)CCCOc1ccc(-c2csc(-c3ccc(C)cc3)n2)cc1 [Example 19, 4-(4-Dibutylaminopropoxyphenyl)-2-(4-methylphenyl)thiazole] | 1.5 | 3 | – | 41 | – | inhibition at 24 µM ([1]; at 24 μM): 50%
6 | CCN(CC)CCCOc1ccc(-c2csc(-c3ccccc3)n2)cc1 [Example 4, 4-(4-Diethylaminopropoxyphenyl)-2-phenylthiazole] | 0.12 | 0.09 | – | – | 82 | inhibition at 47 µM ([1]; at 47 μM): 50%
7 | CN1CCN(CCCOc2ccc(-c3csc(-c4ccccc4)n3)cc2)CC1 [Example 6, 4-[4-(4-Methylpiperazol-1-yl)propoxyphenyl]-2-phenylthiazole] | 0.18 | 0.12 | – | – | 18 | inhibition at 44 µM ([1]; at 44 μM): 50%
8 | c1ccc(-c2nc(-c3ccc(OCCCn4ccnc4)cc3)cs2)cc1 [Example 10, 4-[4-(1H-Imidazol-1-yl)propoxyphenyl]-2-phenylthiazole] | 0.08 | 0.02 | – | 91 | – | inhibition at 18 µM ([1]; at 18 μM): 50%; response vs control in vivo at 5 mg/kg ([2]; Rattus norvegicus, at 5 mpK, read-out: % Acid Secreted at mpK): 33%; response vs control in vivo at 5.7 mg/kg ([2]; Rattus norvegicus, at 5.7 mpK, read-out: % Acid Secreted at mpK): 50%; % Acid Secreted at mpK ([2]; at 10 mpK): 78%
9 | CCCCN(CCCC)CCCOc1ccc(-c2csc(-c3cccnc3)n2)cc1 [Example 21, 4-(4-Dibutylaminopropoxyphenyl)-2-(3-pyridinyl)thiazole] | 1.65 | 0.88 | – | 19 | – | inhibition at 20 µM ([1]; at 20 μM): 50%
10 | c1ccc(-c2nc(-c3cccc(OCCCn4ccnc4)c3)cs2)cc1 [Example 27] | 0.32 | 0.29 | – | 13 | – | inhibition at 10.5 µM ([1]; at 10.5 μM): 50%
11 | CCCCN(CCCC)CCOc1ccc(-c2csc(-c3ccccc3)n2)cc1 [Example 12, 4-(4-Dibutylaminoethoxyphenyl)-2-phenylthiazole] | 0.31 | 0.35 | 44 | 41 | – | –
12 | CCCCN(CCCC)CCCOc1ccc(-c2nc(-c3ccccc3)sc2C)cc1 [Example 3, 4-(4-Dibutylaminopropoxyphenyl)-5-methyl-2-phenylthiazole] | 0.27 | 0.23 | 65 | 36 | – | –
13 | c1ccc(-c2nc(-c3ccc(OCCCCn4ccnc4)cc3)cs2)cc1 [Example 14] | 0.82 | 0.31 | 0 | – | 31 | –
14 | c1ccc(-c2nc(-c3ccc(OCCCn4cncn4)cc3)cs2)cc1 [Example 24, 4-[4-(1,2,4-Triazol-1-yl)propoxyphenyl]-2-phenylthiazole] | 10 | – | 36 | – | 83 | –
15 | CCCCN(CCCC)CCCOc1ccc(-c2csc(-c3ccc(Cl)cc3)n2)cc1 [Example 16] | 2.1 | 1.8 | 55 | 40 | – | –
16 | CCCCN(CCCC)CCCCCOc1ccc(-c2csc(-c3ccccc3)n2)cc1 [Example 15] | 0.49 | 0.86 | 58 | 54 | – | –
17 | c1ccc(-c2nc(-c3ccc(OCCCN4CCCCC4)cc3)cs2)cc1 [Example 8, 4-[4-(3-Piperidino)propoxyphenyl]-2-phenylthiazole] | 0.11 | 0.05 | – | 46 | 92 | inhibition at 34 µM ([1]; at 34 μM): 50%; % Acid Secreted at mpK ([2]; at 10 mpK): 25%
18 | CCCCN(CCCC)CCCOc1c(Cl)cc(-c2csc(-c3ccccc3)n2)cc1Cl [Example 22, 4-[3,5-Dichloro-4-(dibutylaminopropoxy)phenyl]-2-phenylthiazole] | 0.58 | 0.24 | 29 | 41 | – | –
19 | CCCCN(CCCC)CCCCOc1ccc(-c2csc(-c3ccccc3)n2)cc1 [Example 13] | 0.13 | 0.12 | 64 | 56 | 90 | –
20 | CCCN(CCC)CCCOc1ccc(-c2csc(-c3ccccc3)n2)cc1 [Example 5, 4-(4-Dipropylaminopropoxyphenyl)-2-phenylthiazole] | 0.23 | 0.18 | 60 | – | 94 | –
21 | CCCCN(CCCC)CCCOc1ccc(-c2csc(-c3ccccc3)n2)cc1C [Example 26] | 0.3 | 0.29 | 23 | 64 | – | –

From patent publication US4791200A, “2-substituted-4-aryl-substituted thiazoles” (Ortho Pharmaceutical Corporation, priority 1987, dated 1988)
